In US9970947B2, “Fluorescent probe” (MUSC FOUNDATION FOR RESEARCH DEVELOPMENT, priority 2016, dated 2018):
“Also recorded” adds a separate entry of the source.

Assays:
[1] = Cell-free MFF fluorescence as a function of Fe2+ concentration; type: physicochemical
Procedure: (§1) MFF (0-10 μM) was dissolved in medium at the presumed intramitochondrial pH (pH 8.0, 37° C.) (FIG. 2, left panel). Fluorescence of MFF (1 μM) was measured as a function of increasing ferrous ammonium sulfate (Fe^2+) and ferric chloride (Fe^3+) concentration from freshly prepared stock solutions (1 mM). Fluorescence intensity is shown in arbitrary units (a.u.). (FIG. 2, right panel).

[2] = test system: mitochondrial chelatable Fe^2+ in cultured rat hepatocytes; assay: Mitoferrofluor fluorescence quenching after lysosomal iron release with bafilomycin A1; type: cell-based; settings: 120 min after bafilomycin A1, vs vehicle (DMSO)
Procedure: (§2) Rhodamine 123 (Rh123) and MitoTracker Green (MTG) were obtained from Molecular Probes. Primary rat hepatocytes were isolated from overnight-fasted male Sprague-Dawley rats (200-250 g) by collagenase perfusion. Hepatocytes were plated on Type 1 collagen-coated MatTek dishes at a density of 300,000 cells per well and cultured overnight in Waymouth's MB-742/1 growth medium containing 27 mM NaHCO3, 2 mM L-glutamine, 10% fetal calf serum, 100 nM insulin and 10 nM dexamethasone, pH 7.4 at 37° C. in 5% CO2/air.
(§3) Confocal images of hepatocytes were taken with a Zeiss LSM 510 inverted laser scanning confocal microscope (Carl Zeiss, Germany) using a 63×oil immersion objective.
Overnight-cultured rat hepatocytes were loaded with MFF and then rhodamine 123, as described in Example 6. […] Panel C represents a quantitative analysis of 10 random fields (*p<0.05 vs vehicle, n=3).

[3] = test system: mitochondria of cultured rat hepatocytes; assay: Mitochondrial accumulation and retention of probe after depolarization, confocal imaging; type: cell-based; settings: for retention by mitochondria after depolarization: rat hepatocytes, CCCP 10 μM, oligomycin 10 μg/ml, myxothiazol 10 μM
Procedure: as §2, §3
Overnight-cultured rat hepatocytes were loaded with MFF (1 μM for 20 min), washed and incubated for 60 min.
Overnight-cultured rat hepatocytes were loaded with MFF and MTG (both 1 μM for 20 min), washed and incubated for 60 min. Cells were then incubated with 5 mM fructose and imaged “BEFORE” and “AFTER” addition of CCCP, oligomycin and myxothiazol. […] MFF fluorescence changed essentially identically to MTG consistent with covalent labeling of mitochondrial proteins by MFF.

[4] = Absorption, excitation and emission spectra of mitoferrofluor; type: physicochemical
[5] = Cell-free MFF fluorescence as a function of Fe3+ concentration; type: physicochemical; settings: cell free medium
Procedure: as §1

[6] = test system: mitochondrial chelatable Fe^2+ in cultured rat hepatocytes; assay: Mitoferrofluor quenching after mitochondrial Fe2+ uptake; type: cell-based
Procedure: as §2, §3
Overnight-cultured rat hepatocytes were loaded with MFF (1 μM for 20 min), washed out and incubated for 60 min. Rh123 (0.5 μM for 20 min) was then loaded. Fe^2+ was added as ferrous ammonium sulfate (10 mM). Fe^2+ addition quenched MFF fluorescence by ˜72%.

Row | Structure (SMILES) | IC50 ([1]; MFF 1 μM, pH 8.0, 37° C., read-out: IC50 of Fe^2+ quenching of MFF fluorescence) [nM] | quenching of MFF fluorescence by Fe^2+ ([1]; cell free medium) | quenching of mitochondrial MFF fluorescence after bafilomycin A1 [2] | accumulation into mitochondria ([3]; cultured rat hepatocytes) | retention by mitochondria after depolarization [3] | fluorescence emission peak [4] [nm] | fluorescence excitation peak [4] [nm] | extinction coefficient ([4]; at 566 nm) | quenching of MFF fluorescence by Fe^3+ [5] | decrease of intramitochondrial MFF fluorescence ([6]; MFF-loaded hepatocytes, excess extracellular Fe^2+ added) [%] | quenching of MFF fluorescence by Fe^2+ addition ([6]; rat hepatocytes, MFF 1 μM for 20 min, ferrous ammonium sulfate 10 mM) [%]
1 | CCN(CC)c1ccc2c(-c3ccccc3C(=O)OCCCOc3cc(OCCCBr)cc(C(=O)Nc4cc5cccnc5c5ncccc45)c3)c3ccc(=[N+](CC)CC)cc-3oc2c1.[Br-] [MFF, N-(9-(2-((3-(3-((1,10-phenanthrolin-5-yl)carbamoyl)-5-(3-bromopropoxy)phenoxy)propoxy)carbonyl)phenyl)-6-(diethylamino)-3H-xanthen-3-ylidene)-N-ethylethanaminium bromide] | 1000 to 2000 | strongly and stoichiometrically quenched by Fe^2+ | became quenched; also recorded: quenched mitochondrial MFF fluorescence | selectively accumulated into mitochondria | retained by mitochondria; also recorded: MFF fluorescence was retained; also recorded: retained MFF to the same extent as MTG | 598 | 554 | 40,400 cm^−1/M | not by Fe^3+; also recorded: not Fe^3+ quenched | ~80 | ~72
2 | CN1/C(=C/C=C/c2n(Cc3ccc(CCl)cc3)c3cc(Cl)c(Cl)cc3[n+]2Cc2ccc(CCl)cc2)Oc2ccccc21 [MTG, reference compound] | – | – | – | – | some release of MTG into the cytosol | – | – | – | – | – | –
